# Measured values: PMC5927803 (Pharmacology Research & Perspectives, 2018)
# Values joined by “and” are separate entries in the source; they are usually repeats but may differ in a detail not shown here. Equal entries are not always repeated. Where two headings read alike, the source gives them in different places.
# Legend:
# hM4‐Gα16 mAChR = molecular target: T1, hM4‐Gα16 mAChR (Homo sapiens, UniProt P08173); experiment: Inhibition of agonist-stimulated calcium mobilization; assay type: cell-based
# T1 sequence (P08173 1-479): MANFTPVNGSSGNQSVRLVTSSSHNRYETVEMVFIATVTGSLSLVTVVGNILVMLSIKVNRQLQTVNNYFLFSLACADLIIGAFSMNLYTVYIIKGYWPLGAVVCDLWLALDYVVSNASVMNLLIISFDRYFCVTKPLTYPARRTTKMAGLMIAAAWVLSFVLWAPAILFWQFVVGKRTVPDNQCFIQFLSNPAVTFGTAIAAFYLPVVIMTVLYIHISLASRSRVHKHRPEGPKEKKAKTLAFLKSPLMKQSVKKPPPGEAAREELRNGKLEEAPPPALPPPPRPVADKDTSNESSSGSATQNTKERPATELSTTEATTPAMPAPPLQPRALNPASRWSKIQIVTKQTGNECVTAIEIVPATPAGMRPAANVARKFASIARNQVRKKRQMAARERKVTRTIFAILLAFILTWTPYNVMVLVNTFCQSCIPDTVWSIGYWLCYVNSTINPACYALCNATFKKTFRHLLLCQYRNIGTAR
# [1] = test system: guinea pig isolated trachea; experiment: Inhibition of EFS contraction: potency and offset time; settings: IC90 concentration, washout
# cM5 mAChR = molecular target: T2, cM5 mAChR (Pan troglodytes, UniProt Q5IS53); experiment: Inhibition of agonist-stimulated calcium mobilization; assay type: cell-based, chimpanzee
# T2 sequence (Q5IS53 1-532): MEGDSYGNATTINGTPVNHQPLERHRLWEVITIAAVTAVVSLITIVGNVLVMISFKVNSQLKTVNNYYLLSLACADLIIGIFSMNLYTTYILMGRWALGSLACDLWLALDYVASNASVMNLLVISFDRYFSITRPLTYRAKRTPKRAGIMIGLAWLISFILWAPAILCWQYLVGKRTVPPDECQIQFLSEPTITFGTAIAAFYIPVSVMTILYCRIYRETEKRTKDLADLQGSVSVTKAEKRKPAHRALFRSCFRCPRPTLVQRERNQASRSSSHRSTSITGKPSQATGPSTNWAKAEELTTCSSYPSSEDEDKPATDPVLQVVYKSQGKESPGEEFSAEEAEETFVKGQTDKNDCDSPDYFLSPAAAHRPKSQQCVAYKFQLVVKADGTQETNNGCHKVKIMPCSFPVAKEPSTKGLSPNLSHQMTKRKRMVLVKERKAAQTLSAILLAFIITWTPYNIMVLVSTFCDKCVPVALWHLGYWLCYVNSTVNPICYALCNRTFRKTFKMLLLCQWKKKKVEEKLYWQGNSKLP
# [2] = test system: human isolated bronchial tissue; settings: human bronchus, carbachol; cited from earlier work
# hM4 mAChR [3] = molecular target: T3, hM4 mAChR (Homo sapiens, UniProt P08173); experiment: Competition radioligand binding, [^3H]NMS
# T3 sequence (P08173 1-479): T1 sequence (P08173 1-479)
# hM5 mAChR [4] = molecular target: T4, hM5 mAChR (Homo sapiens, UniProt P08912); experiment: Competition radioligand binding, [^3H]NMS
# T4 sequence (P08912 1-532): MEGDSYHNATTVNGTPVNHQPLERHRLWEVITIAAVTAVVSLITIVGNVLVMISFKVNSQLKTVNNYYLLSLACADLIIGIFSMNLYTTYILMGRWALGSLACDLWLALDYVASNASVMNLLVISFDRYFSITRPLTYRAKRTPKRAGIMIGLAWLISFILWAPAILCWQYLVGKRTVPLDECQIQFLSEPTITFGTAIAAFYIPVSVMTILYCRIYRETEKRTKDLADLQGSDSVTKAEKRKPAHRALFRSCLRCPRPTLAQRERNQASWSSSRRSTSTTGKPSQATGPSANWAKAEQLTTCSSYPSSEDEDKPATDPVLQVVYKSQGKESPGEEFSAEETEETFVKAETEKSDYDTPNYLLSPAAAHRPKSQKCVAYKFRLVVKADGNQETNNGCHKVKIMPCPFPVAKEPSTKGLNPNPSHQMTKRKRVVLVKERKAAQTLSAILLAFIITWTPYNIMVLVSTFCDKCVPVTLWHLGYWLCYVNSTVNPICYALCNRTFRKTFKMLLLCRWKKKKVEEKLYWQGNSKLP
# [5] = test system: rat isolated tracheal tissue; experiment: Antagonism of ACh-evoked contraction: potency and offset time
# hM3 mAChR [6] = molecular target: T5, hM3 mAChR (Homo sapiens, UniProt P20309); settings: cited from earlier work
# hM2 mAChR [7] = molecular target: T6, hM2 mAChR (Homo sapiens, UniProt P08172); settings: cited from earlier work
# T6 sequence (P08172 1-466): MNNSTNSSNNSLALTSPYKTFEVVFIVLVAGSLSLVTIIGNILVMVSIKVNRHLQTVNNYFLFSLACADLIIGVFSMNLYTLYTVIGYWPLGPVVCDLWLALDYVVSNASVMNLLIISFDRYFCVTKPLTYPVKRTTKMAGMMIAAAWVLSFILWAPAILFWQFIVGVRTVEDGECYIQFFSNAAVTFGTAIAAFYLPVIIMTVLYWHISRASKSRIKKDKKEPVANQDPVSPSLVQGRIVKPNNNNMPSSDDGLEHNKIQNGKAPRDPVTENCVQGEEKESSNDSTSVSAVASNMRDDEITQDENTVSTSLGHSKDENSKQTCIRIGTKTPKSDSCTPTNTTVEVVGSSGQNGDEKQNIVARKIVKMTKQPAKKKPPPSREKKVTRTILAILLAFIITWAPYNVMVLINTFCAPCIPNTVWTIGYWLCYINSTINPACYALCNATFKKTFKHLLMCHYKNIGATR
# hM5 mAChR [8] = molecular target: T4, hM5 mAChR; experiment: Saturation radioligand binding
# [9] = test system: panel of 81 receptors, enzymes, and channels; experiment: Off-target panel screen; assay type: binding; settings: 1 μmol L^−1
# [10] = molecular target: cloned human 5‐HT4(C) receptors (Homo sapiens, UniProt Q13639); experiment: 5-HT4 agonist assay; assay type: cell-based
# hM2 mAChR [11] = molecular target: T6, hM2 mAChR; experiment: Inhibition of agonist-stimulated [^35S]GTPγS binding, CHO-K1 membranes; assay type: biochemical; settings: absence of agonist
# hM1 mAChR [12] = molecular target: T7, hM1 mAChR (Homo sapiens, UniProt P11229); experiment: Competition radioligand binding, [^3H]NMS
# T7 sequence (P11229 1-460): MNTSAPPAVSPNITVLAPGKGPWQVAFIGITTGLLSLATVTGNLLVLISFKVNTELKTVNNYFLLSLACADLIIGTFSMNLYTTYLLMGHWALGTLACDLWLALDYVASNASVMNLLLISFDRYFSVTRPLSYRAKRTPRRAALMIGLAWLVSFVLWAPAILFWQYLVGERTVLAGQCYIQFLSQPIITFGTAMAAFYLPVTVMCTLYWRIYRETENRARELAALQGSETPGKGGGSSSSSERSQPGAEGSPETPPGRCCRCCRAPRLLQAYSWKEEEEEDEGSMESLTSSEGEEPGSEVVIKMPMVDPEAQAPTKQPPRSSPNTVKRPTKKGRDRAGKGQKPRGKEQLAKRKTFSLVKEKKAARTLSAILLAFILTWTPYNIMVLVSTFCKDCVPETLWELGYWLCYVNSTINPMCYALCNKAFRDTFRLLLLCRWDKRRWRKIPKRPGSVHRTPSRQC
# hM3 mAChR [13] = molecular target: T5, hM3 mAChR; experiment: Reversibility of antagonism of ACh-induced calcium mobilization, CHO-K1 cells; assay type: cell-based
# hM3 mAChR [14] = molecular target: T5, hM3 mAChR; experiment: Competition radioligand binding, [^3H]NMS; settings: hM3 pKI, [^3H]NMS competition, CHO-K1 membranes, 37°C; mean ± SD
# [15] = test system: bronchoconstrictor response to ACh or methacholine (MCh); settings: dogs, inhalation dosing; cited from earlier work
# hM2 mAChR [16] = molecular target: T6, hM2 mAChR; experiment: Association and dissociation binding kinetics; settings: 37°C
# hM4 mAChR [17] = molecular target: T3, hM4 mAChR; experiment: Saturation radioligand binding
# hM3 mAChR [18] = molecular target: T5, hM3 mAChR; experiment: Association and dissociation binding kinetics
# COPD patients = settings: nebulized, once‐daily dosing; cited from earlier work
# [19] = test system: human isolated bronchial tissue; experiment: Antagonism of carbachol-evoked contraction: potency and offset time; settings: superfusion washout, 10‐100 nmol·L^−1, 1 μmol L^−1 CCh, 10 hours perfusion
# hM1 mAChR [20] = molecular target: T7, hM1 mAChR; experiment: Inhibition of agonist-stimulated calcium mobilization; assay type: cell-based
# Guinea Pig H1 (central) = Guinea Pig H1 (central) (Cavia porcellus, UniProt P31389); experiment: Off-target panel radioligand binding; settings: read-out: % Inhibition Specific Binding (1 µM)
# hM1 mAChR [21] = molecular target: T7, hM1 mAChR; experiment: Saturation radioligand binding
# hM3 mAChR [22] = molecular target: T5, hM3 mAChR; experiment: Saturation radioligand binding
# hM3 mAChR [23] = molecular target: T5, hM3 mAChR; experiment: Inhibition of agonist-stimulated calcium mobilization; assay type: cell-based
# [24] = test system: bronchoconstrictor response to ACh or methacholine (MCh); settings: rats, inhalation dosing; cited from earlier work
# histamine H1 receptor = histamine H1 receptor (Cavia porcellus, UniProt P31389); experiment: H1 radioligand binding, concentration-response; settings: selectivity hM3 over H1
# [25] = tested alone in cells expressing mAChRs
# T5 sequence (P20309 whole entry): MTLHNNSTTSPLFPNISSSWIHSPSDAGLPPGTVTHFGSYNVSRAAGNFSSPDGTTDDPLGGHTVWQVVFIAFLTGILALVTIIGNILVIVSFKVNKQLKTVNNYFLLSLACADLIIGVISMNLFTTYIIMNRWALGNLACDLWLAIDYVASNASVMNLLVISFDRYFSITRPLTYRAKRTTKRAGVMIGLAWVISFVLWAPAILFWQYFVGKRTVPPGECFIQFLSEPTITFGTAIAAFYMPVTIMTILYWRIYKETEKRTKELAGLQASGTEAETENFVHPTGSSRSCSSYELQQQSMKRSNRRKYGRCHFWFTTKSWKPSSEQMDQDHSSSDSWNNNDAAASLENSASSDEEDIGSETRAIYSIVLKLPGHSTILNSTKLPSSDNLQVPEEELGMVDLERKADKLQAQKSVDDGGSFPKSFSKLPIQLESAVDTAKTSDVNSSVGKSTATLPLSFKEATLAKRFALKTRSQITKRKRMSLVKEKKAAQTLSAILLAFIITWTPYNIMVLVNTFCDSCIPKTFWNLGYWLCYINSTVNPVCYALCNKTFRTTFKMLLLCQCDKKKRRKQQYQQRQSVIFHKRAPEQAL
# cloned human 5‐HT4(C) receptors, sequence (Q13639 1-380 isoform Q13639-4): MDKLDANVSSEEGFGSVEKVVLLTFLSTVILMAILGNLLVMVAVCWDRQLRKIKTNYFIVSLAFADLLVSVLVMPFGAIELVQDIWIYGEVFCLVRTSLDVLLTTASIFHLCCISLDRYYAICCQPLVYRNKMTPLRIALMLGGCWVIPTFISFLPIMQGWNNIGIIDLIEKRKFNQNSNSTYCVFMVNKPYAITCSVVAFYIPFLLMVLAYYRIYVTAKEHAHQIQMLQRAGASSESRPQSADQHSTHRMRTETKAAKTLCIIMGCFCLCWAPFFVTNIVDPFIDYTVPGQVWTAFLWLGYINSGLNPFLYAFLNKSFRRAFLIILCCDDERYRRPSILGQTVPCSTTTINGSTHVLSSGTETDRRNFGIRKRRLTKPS
# histamine H1 receptor, sequence (P31389 whole entry): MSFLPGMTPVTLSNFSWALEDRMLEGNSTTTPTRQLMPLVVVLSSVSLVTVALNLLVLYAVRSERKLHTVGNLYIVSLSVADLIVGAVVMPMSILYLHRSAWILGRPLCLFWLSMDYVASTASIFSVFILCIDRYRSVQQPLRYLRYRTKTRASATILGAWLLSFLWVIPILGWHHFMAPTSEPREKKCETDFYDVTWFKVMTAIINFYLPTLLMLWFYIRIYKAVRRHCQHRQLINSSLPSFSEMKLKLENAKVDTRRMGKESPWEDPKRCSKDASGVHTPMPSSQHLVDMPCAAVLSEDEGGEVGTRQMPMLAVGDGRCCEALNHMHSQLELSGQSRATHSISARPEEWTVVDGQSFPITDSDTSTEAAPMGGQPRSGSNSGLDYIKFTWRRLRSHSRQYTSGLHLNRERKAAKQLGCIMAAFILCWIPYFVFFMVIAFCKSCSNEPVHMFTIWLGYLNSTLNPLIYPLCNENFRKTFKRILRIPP
# Guinea Pig H1 (central), sequence (P31389 whole entry): as above
smiles,measurement,setting,value
"C[N+]1(C)[C@@H]2C[C@@H](OC(=O)C(O)(c3cccs3)c3cccs3)C[C@H]1[C@@H]1O[C@@H]12 [Tiotropium, reference compound]",Ki,hM4‐Gα16 mAChR,0.0617 nM
same,offset t 1/2,[1],> 20 h
same,Ki,cM5 mAChR,0.105 nM
same,nature of antagonism,[2],potent insurmountable antagonist
same,Ki,hM4 mAChR [3],0.0204 nM
same,Ki,hM5 mAChR [4],0.0813 nM
"CC(C)[N+]1(C)[C@@H]2CC[C@H]1C[C@@H](OC(=O)C(CO)c1ccccc1)C2 (stereo partly drawn) [Ipratropium, reference compound]",pA2,"[5]; ACh contraction, surmountable antagonist",9.2 ± 0.1
same,dissociation from hM3 receptors,hM3 mAChR [6],dissociate rapidly
same,dissociation from hM2 receptors,hM2 mAChR [7],dissociate rapidly
same,Ki,cM5 mAChR,0.191 nM
same,nature of antagonism,[2],surmountable antagonism
"CN(CCN1CCC(OC(=O)Nc2ccccc2-c2ccccc2)CC1)C(=O)c1ccc(CN2CCC(C(N)=O)CC2)cc1 [Revefenacin, biphenyl‐2‐ylcarbamic acid 1‐(2‐{[4‐(4‐carbamoylpiperidin‐1‐ylmethyl)benzoyl]methylamino}ethyl)piperidin‐4‐yl ester]",offset t 1/2,"[5]; IC90 concentration, washout, time for response to recover by 50%",13.3 h
same,potency lower than that of tiotropium,[5]; from pKB,4 fold
same,potency greater than that of ipratropium,[5]; pKB vs pA2,20 fold
same,Kd,hM5 mAChR [8],4.2 nM
same,activity at a majority of the targets,[9],< 75%
same,EC50,[10],257 nM
same,potency at 5‐HT4 receptor lower than Ki at the hM3 receptor,[10]; selectivity hM3 over 5-HT4,> 1400 fold
same,stimulation of [^35S]GTPγS binding at hM2 (agonist activity),hM2 mAChR [11],did not stimulate
same,Ki,hM4‐Gα16 mAChR,0.0112 nM
same,"Ca^2+ response when tested alone (agonist activity), hM4‐Gα16",hM4‐Gα16 mAChR; [25],no Ca^2+ response
same,offset t 1/2,[1],> 16 h
same,Ki,hM1 mAChR [12],0.417 nM
same,Kb,hM3 mAChR [13],0.0933 nM
same,Ki,cM5 mAChR,0.363 nM
same,"Ca^2+ response when tested alone (agonist activity), cM5",cM5 mAChR; [25],no Ca^2+ response
same,Ki,hM3 mAChR [14],0.2 nM and 0.178 nM
same,duration of bronchoprotective effect,[15],≥ 24 h
same,dissociation t 1/2 M2,hM2 mAChR [16],6.9 min
same,Kd,hM4 mAChR [17],0.46 nM
same,Kd,hM3 mAChR [18],0.0933 nM
same,hM3 dissociation t 1/2 shorter than that of tiotropium,hM3 mAChR [18],2.8 fold
same,dissociation t 1/2 M3,hM3 mAChR [18]; 37°C,1.37 h
same,duration of bronchodilation,COPD patients,24 h
same,offset t 1/2,[19],> 10 h
same,Ki,hM1 mAChR [20],0.126 nM
same,"Ca^2+ response when tested alone (agonist activity), hM1",hM1 mAChR [20]; [25],no Ca^2+ response
same,Ki,"hM4 mAChR [3]; hM4 KI, [^3H]NMS competition, from IC50 by Cheng and Prusoff",0.56 nM
same,Ki,"hM4 mAChR [3]; hM4 pKI, [^3H]NMS competition, CHO-K1 membranes, 37°C, mean ± SD",0.55 nM
same,Ki,"hM5 mAChR [4]; hM5 KI, [^3H]NMS competition, from IC50 by Cheng and Prusoff",6.7 nM
same,Ki,"hM5 mAChR [4]; hM5 pKI, [^3H]NMS competition, CHO-K1 membranes, 37°C, mean ± SD",6.31 nM
same,inhibition at 1 µM,Guinea Pig H1 (central),87%
same,Kd,hM1 mAChR [21],1 nM
same,Kd,hM3 mAChR [22],0.39 nM
same,Ki,hM3 mAChR [23],0.0955 nM
same,"Ca^2+ response when tested alone (agonist activity), hM3",hM3 mAChR [23]; [25],no Ca^2+ response
same,duration of bronchoprotective effect,[24],≥ 24 h
same,potency at histamine H1 receptor lower than Ki at the hM3 receptor,histamine H1 receptor,> 2700 fold
